Laboratory results: patent publication US12492181B2, “Gem-disubstituted piperidine melanocortin subtype-2 receptor (MC2R) antagonists and uses thereof” (Crinetics Pharmaceuticals, Inc., priority 2019, dated 2025)

molecular target: T1, hMC2 receptor (crude hMC2R membranes from CRE-bla-CHO-K1 cells stably expressing hMC2 receptor and hMRAP accessory protein) (Homo sapiens, UniProt Q01718); assay: hMC2 membrane binding assay ([125I]ACTH (1-39) Tyr23, SPA); details: displacement of 0.2 nM [125I]ACTH (1-39) Tyr23 from hMC2R membranes, 1.5 hours at room temperature; read-out: MC2R binding potency
T1 construct: crude membrane fractions
In short: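 Ki values come from non-linear regression of SPA scintillation counts, with compounds displacing [125I]ACTH(1-39) Tyr23. Membranes come from CRE-bla-CHO-K1 cells stably expressing hMC2 receptor together with hMRAP. They are preincubated with WGA-coated PVT SPA beads in 50 mM HEPES pH 7.4 with 0.20% BSA, Mg2+, Ca2+ and protease inhibitors.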

T1 sequence (Q01718 whole entry): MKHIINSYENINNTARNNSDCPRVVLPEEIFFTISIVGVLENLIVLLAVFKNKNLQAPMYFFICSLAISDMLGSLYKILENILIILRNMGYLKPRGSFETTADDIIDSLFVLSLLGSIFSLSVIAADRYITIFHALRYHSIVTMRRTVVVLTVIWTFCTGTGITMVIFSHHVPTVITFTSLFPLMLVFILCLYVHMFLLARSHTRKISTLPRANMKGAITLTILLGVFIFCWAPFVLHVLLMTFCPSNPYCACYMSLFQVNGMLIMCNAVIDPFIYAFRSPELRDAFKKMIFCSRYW
T1 sequence (Q8TCY5 whole entry partner): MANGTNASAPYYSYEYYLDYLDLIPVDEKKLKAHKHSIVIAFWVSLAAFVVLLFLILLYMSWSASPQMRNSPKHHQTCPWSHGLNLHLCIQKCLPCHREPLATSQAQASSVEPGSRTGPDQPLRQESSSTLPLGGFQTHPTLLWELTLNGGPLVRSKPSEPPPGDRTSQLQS

Row | Structure (SMILES) | Ki [nM]
1 | CN1CC[C@@H](NC(=O)C2(c3ccc(-c4cccc(F)c4F)nc3)CCN(c3ccc(C(F)(F)F)cc3C#N)CC2)C1 [Compound 1-61, 1-[2-cyano-4-(trifluoromethyl)phenyl]-4-[6-(2,3-difluorophenyl)pyridin-3-yl]-N-[(3R)-1-methylpyrrolidin-3-yl]piperidine-4-carboxamide] | < 10
2 | COc1ccc(F)cc1-c1ccc(C2(C(=O)N[C@@H]3CCN(C)C3)CCN(c3ccc(C(F)(F)F)cc3C#N)CC2)cn1 [Compound 1-81, 1-[2-cyano-4-(trifluoromethyl)phenyl]-4-[6-(5-fluoro-2-methoxyphenyl)pyridin-3-yl]-N-[(3R)-1-methylpyrrolidin-3-yl]piperidine-4-carboxamide] | < 10
3 | CCOc1ncccc1-c1ccc(C2(C(=O)NC[C@H](CO)N(C)C)CCN(c3ccc(C(F)(F)F)cc3C#N)CC2)cn1 [Compound 1-45, 1-[2-cyano-4-(trifluoromethyl)phenyl]-N-[(2R)-2-(dimethylamino)-3-hydroxypropyl]-4-{2′-ethoxy-[2,3′-bipyridin]-5-yl}piperidine-4-carboxamide] | < 10
4 | Cc1oncc1-c1ccc(C2(C(=O)N[C@@H]3CCN(C)C3)CCN(c3ccc(C(F)(F)F)cc3C#N)CC2)cn1 [Compound 1-157, 1-[2-cyano-4-(trifluoromethyl)phenyl]-4-[6-(5-methyl-1,2-oxazol-4-yl)pyridin-3-yl]-N-[(3R)-1-methylpyrrolidin-3-yl]piperidine-4-carboxamide] | 10 to 100
5 | COc1c(F)cc(F)cc1-c1ccc(C2(C(=O)N[C@@H]3CCN(C)C3)CCN(c3ccc(C(F)(F)F)cc3C#N)CC2)cn1 [Compound 1-87, 1-[2-cyano-4-(trifluoromethyl)phenyl]-4-[6-(3,5-difluoro-2-methoxyphenyl)pyridin-3-yl]-N-[(3R)-1-methylpyrrolidin-3-yl]piperidine-4-carboxamide] | < 10
6 | Cc1nocc1-c1ccc(C2(C(=O)N[C@H]3CCN(C)C3)CCN(c3ccc(C(F)(F)F)cc3C#N)CC2)cn1 [Compound 1-149, 1-[2-cyano-4-(trifluoromethyl)phenyl]-4-[6-(3-methyl-1,2-oxazol-4-yl)pyridin-3-yl]-N-[(3S)-1-methylpyrrolidin-3-yl]piperidine-4-carboxamide] | < 10
7 | COc1ncccc1-c1ncc(C2(C(=O)N[C@@H]3CCN(C)C3)CCN(c3ccc(C(F)(F)F)cc3C#N)CC2)cc1F [Compound 1-131, 1-[2-cyano-4-(trifluoromethyl)phenyl]-4-{3-fluoro-2′-methoxy-[2,3′-bipyridin]-5-yl}-N-[(3R)-1-methylpyrrolidin-3-yl]piperidine-4-carboxamide] | < 10
8 | CCc1sccc1-c1ccc(C2(C(=O)N[C@H]3CCN(C)C3)CCN(c3ccc(C(F)(F)F)cc3C#N)CC2)cn1 [Compound 1-147, 1-[2-cyano-4-(trifluoromethyl)phenyl]-4-[6-(2-ethylthiophen-3-yl)pyridin-3-yl]-N-[(3S)-1-methylpyrrolidin-3-yl]piperidine-4-carboxamide] | < 10
9 | CCOc1ncccc1-c1ccc(C2(C(=O)NCCNC)CCN(c3ccc(C(F)(F)F)cc3C#N)CC2)cn1 [Compound 1-14, 1-[2-cyano-4-(trifluoromethyl)phenyl]-4-{2′-ethoxy-[2,3′-bipyridin]-5-yl}-N-[2-(methylamino)ethyl]piperidine-4-carboxamide] | < 10
10 | CN1CC[C@H](NC(=O)C2(c3ccc(-c4ccccc4C(F)F)nc3)CCN(c3ccc(C(F)(F)F)cc3C#N)CC2)C1 [Compound 1-151, 1-[2-cyano-4-(trifluoromethyl)phenyl]-4-{6-[2-(difluoromethyl)phenyl]pyridin-3-yl}-N-[(3S)-1-methylpyrrolidin-3-yl]piperidine-4-carboxamide] | < 10
11 | CN1CC[C@H](NC(=O)C2(c3ccc(-c4cccn4C)nc3)CCN(c3ccc(C(F)(F)F)cc3Cl)CC2)C1 [Compound 1-160, 1-[2-chloro-4-(trifluoromethyl)phenyl]-4-[6-(1-methyl-1H-pyrrol-2-yl)pyridin-3-yl]-N-[(3S)-1-methylpyrrolidin-3-yl]piperidine-4-carboxamide] | < 10
12 | CCOc1ncccc1-c1ccc(C2(C(=O)N[C@@H]3CCNC3)CCN(c3ccc(C(F)(F)F)cc3C#N)CC2)cn1 [Compound 1-10, 1-[2-cyano-4-(trifluoromethyl)phenyl]-4-{2′-ethoxy-[2,3′-bipyridin]-5-yl}-N-[(3R)-pyrrolidin-3-yl]piperidine-4-carboxamide] | < 10
13 | COc1ccccc1-c1ccc(C2(C(=O)N[C@@H]3CN4CCC3CC4)CCN(c3ccc(C(F)(F)F)cc3C#N)CC2)cn1 [Compound 1-218, N-[(3S)-1-azabicyclo[2.2.2]octan-3-yl]-1-[2-cyano-4-(trifluoromethyl)phenyl]-4-[6-(2-methoxyphenyl)pyridin-3-yl]piperidine-4-carboxamide] | < 10
14 | Cc1cccnc1-c1ccc(C2(C(=O)N[C@@H]3CCN(C)C3)CCN(c3ccc(C(F)(F)F)cc3C#N)CC2)cn1 [Compound 1-177, 1-[2-cyano-4-(trifluoromethyl)phenyl]-4-{3′-methyl-[2,2′-bipyridin]-5-yl}-N-[(3R)-1-methylpyrrolidin-3-yl]piperidine-4-carboxamide] | 100 to 1000

Next, values leading:

Row | Ki [nM] | Structure (SMILES)
15 | < 10 | CNC[C@H](C)NC(=O)C1(c2ccc(-c3cccn3C)nc2)CCN(c2ccc(C(F)(F)F)cc2F)CC1 [Compound 1-298, 1-[2-fluoro-4-(trifluoromethyl)phenyl]-4-[6-(1-methyl-1H-pyrrol-2-yl)pyridin-3-yl]-N-[(2S)-1-(methylamino)propan-2-yl]piperidine-4-carboxamide]
16 | < 10 | COc1ccccc1-c1ccc(C2(C(=O)N[C@H]3CCN(C)C3)CCN(c3ccc(C(F)(F)F)cc3C#N)CC2)nn1 [Compound 1-183, 1-[2-cyano-4-(trifluoromethyl)phenyl]-4-[6-(2-methoxyphenyl)pyridazin-3-yl]-N-[(3S)-1-methylpyrrolidin-3-yl]piperidine-4-carboxamide]
17 | < 10 | COc1ccccc1-c1ccc(C2(NC(=O)O[C@H]3CCN(C)C3)CCN(c3ccc(C(F)(F)F)cc3C#N)CC2)cn1 [Compound 2-53, (3S)-1-methylpyrrolidin-3-yl N-{1-[2-cyano-4-(trifluoromethyl)phenyl]-4-[6-(2-methoxyphenyl)pyridin-3-yl]piperidin-4-yl}carbamate]
18 | < 10 | COc1nc2ccccc2cc1-c1ccc(C2(C(=O)N[C@@H]3CCN(C)C3)CCN(c3ccc(C(F)(F)F)cc3C#N)CC2)cn1 [Compound 1-189, 1-[2-cyano-4-(trifluoromethyl)phenyl]-4-[6-(2-methoxyquinolin-3-yl)pyridin-3-yl]-N-[(3R)-1-methylpyrrolidin-3-yl]piperidine-4-carboxamide]
19 | < 10 | COc1ccccc1-c1ccc(C2(C(=O)NC[C@@H]3C[C@@H](F)CN3)CCN(c3ccc(C(F)(F)F)cc3C#N)CC2)cn1 [Compound 1-247, 1-[2-cyano-4-(trifluoromethyl)phenyl]-N-{[(2S,4R)-4-fluoropyrrolidin-2-yl]methyl}-4-[6-(2-methoxyphenyl)pyridin-3-yl]piperidine-4-carboxamide]
20 | < 10 | CCOc1ncccc1-c1ccc(C2(NC(=O)N[C@@H]3CCN(C)C3)CCN(c3ccc(C(F)(F)F)cc3C#N)CC2)cn1 [Compound 2-19, 1-{1-[2-cyano-4-(trifluoromethyl)phenyl]-4-{2′-ethoxy-[2,3′-bipyridin]-5-yl}piperidin-4-yl}-3-[(3R)-1-methylpyrrolidin-3-yl]urea]
21 | < 10 | CCOc1ncccc1-c1ncc(C2(C(=O)NCCNC)CCN(c3ccc(C(F)(F)F)cc3F)CC2)cc1F [Compound 1-287, 4-{2′-ethoxy-3-fluoro-[2,3′-bipyridin]-5-yl}-1-[2-fluoro-4-(trifluoromethyl)phenyl]-N-[2-(methylamino)ethyl]piperidine-4-carboxamide]
22 | < 10 | CN(C)CCNC(=O)C1(c2ccc(-c3cccn3C)nc2)CCN(c2ccc(C(F)(F)F)cc2F)CC1 [Compound 1-276, N-[2-(dimethylamino)ethyl]-1-[2-fluoro-4-(trifluoromethyl)phenyl]-4-[6-(1-methyl-1H-pyrrol-2-yl)pyridin-3-yl]piperidine-4-carboxamide]
23 | < 10 | CCn1cccc1-c1ccc(C2(C(=O)N[C@H]3CCN(C)C3)CCN(c3ccc(C(F)(F)F)cc3C#N)CC2)cn1 [Compound 1-208, 1-[2-cyano-4-(trifluoromethyl)phenyl]-4-[6-(1-ethyl-1H-pyrrol-2-yl)pyridine-3-yl]-N-[(3S)-1-methylpyrrolidin-3-yl]piperidine-4-carboxamide]
24 | < 10 | CCOc1ncccc1-c1ncc(C2(C(=O)NC[C@H](CO)N(C)C)CCN(c3ccc(C(F)(F)F)cc3C#N)CC2)cc1F [Compound 1-334, 1-[2-cyano-4-(trifluoromethyl)phenyl]-N-[(2R)-2-(dimethylamino)-3-hydroxypropyl]-4-{2′-ethoxy-3-fluoro-[2,3′-bipyridin]-5-yl}piperidine-4-carboxamide]
25 | 10 to 100 | CN1CC[C@@H](NC(=O)C2(c3ccc(-c4cccc5ccn(C)c45)nc3)CCN(c3ccc(C(F)(F)F)cc3C#N)CC2)C1 [Compound 1-190, 1-[2-cyano-4-(trifluoromethyl)phenyl]-4-[6-(1-methyl-1H-indol-7-yl)pyridin-3-yl]-N-[(3R)-1-methylpyrrolidin-3-yl]piperidine-4-carboxamide]
26 | < 10 | CCOc1ncccc1-c1ccc(C2(C(=O)N[C@@H](C)CN(C)C)CCN(c3ccc(Cl)cc3Cl)CC2)cn1 [Compound 1-318, 1-(2,4-dichlorophenyl)-N-[(2S)-1-(dimethylamino)propan-2-yl]-4-{2′-ethoxy-[2,3′-bipyridin]-5-yl}piperidine-4-carboxamide]
27 | < 10 | CCOc1ncccc1-c1ccc(C2(NC(=O)CCN)CCN(c3ccc(C(F)(F)F)cc3C#N)CC2)cn1 [Compound 2-4, 3-amino-N-{1-[2-cyano-4-(trifluoromethyl)phenyl]-4-{2′-ethoxy-[2,3′-bipyridin]-5-yl}piperidin-4-yl}propanamide]
